Reference: patent US20260109712A1, “RIFAMYCINS FOR NONTUBERCULOUS MYCOBACTERIA” (priority 2022, published 2026)
≈ marks a conversion by molar mass, not a printed value.

Legend:
M. abscessus ATCC 19977 = assay: MIC assay in 96-well plate format, wild-type strain; format: cell-based, Mycobacterium abscessus; conditions: for MIC: M. abscessus ATCC 19977, 90% growth inhibition, read-out: WT Mab MIC; for MIC ratio: WT MIC/Δarr strain MIC; for fold loss of potency compared to 5a: MIC against M. abscessus; for MICWT: Table 10
Experimental: (§1) MIC determination was carried out in 96-well plate format as previously described.^[13-14] 96-well plates were initially set up with 100 μL of 7H9 per well. For each compound, a ten-point two-fold dilution series starting at twice the desired highest concentration was dispensed onto the 96-well plates using a Tecan D300e Digital Dispenser, with the DMSO concentration normalized to 2%. M. abscessus culture grown to mid-log phase (OD600=0.4-0.6) was diluted to OD600=0.1 (1×10^7 CFU/mL). […] Untreated control wells are included on each plate that contain bacteria suspension and 1% DMSO. Plates were sealed with parafilm, stored in boxes with wet paper towels and incubated at 37° C. with shaking (110 RPM). Plates were incubated for 3 days. To determine growth, OD600 was measured using a Tecan Infinite M200 plate reader on Day 0 and Day 3. Two biological replicates were performed. Clarithromycin was included in each experiment as a positive control.
(§2) For each well on the 96-well plate, bacterial growth was calculated by subtracting the Day 0 OD600 value from the Day 3 OD600 value. […] For compound-containing wells, percentage growth was calculated by dividing their growth values by the average drug-free bacterial growth for the compound series and multiplying by 100. For each compound series, we plotted percentage growth versus compound concentration.

Δarr M. abscessus = assay: MIC assay, isogenic arr-deleted strain; format: cell-based, Mycobacterium abscessus; conditions: for Δarr Mab MIC: arr-deleted strain, 90% growth inhibition; for MICΔorr: Table 10
Experimental: as §1, §2

Row | SMILES | MIC (M. abscessus ATCC 19977) [µM] | MIC ratio (M. abscessus ATCC 19977) | Δarr Mab MIC (Δarr M. abscessus) [µM] | fold loss of potency compared to 5a (M. abscessus ATCC 19977) [fold] | MICWT (M. abscessus ATCC 19977) [µM] | MICΔorr (Δarr M. abscessus) [µM]
1 | CO[C@H]1/C=C/O[C@@]2(C)Oc3c(C)c(O)c4c(c3C2=O)C2=NC3(CCN(CC(C)C)CC3)NC2=C(NC(=O)/C(C)=C/C=C/[C@H](C)[C@H](O)[C@@H](C)[C@@H](O)[C@@H](C)[C@H](OC(=O)c2ccccc2Cl)[C@@H]1C)C4=O [5f, 25-O-(2-chlorobenzoyl)-25-O-desacetyrifabutin] | 0.043 (≈ 0.0406 µg/mL) | 0.9 | 0.049 |  |  | 
2 | COc1ccccc1C(=O)O[C@H]1[C@H](C)[C@H](O)[C@H](C)[C@@H](O)[C@@H](C)/C=C/C=C(\C)C(=O)NC2=C3NC4(CCN(CC(C)C)CC4)N=C3c3c(c(O)c(C)c4c3C(=O)[C@@](C)(O/C=C/[C@H](OC)[C@H]1C)O4)C2=O [5g, 25-O-(2-methoxybenzoyl)-25-O-desacetyrifabutin] | 0.03 (≈ 0.0282 µg/mL) | 1.0 | 0.03 |  |  | 
3 | CO[C@H]1/C=C/O[C@@]2(C)Oc3c(C)c(O)c4c(c3C2=O)C2=NC3(CCN(CC(C)C)CC3)NC2=C(NC(=O)/C(C)=C/C=C/[C@H](C)[C@H](O)[C@@H](C)[C@@H](O)[C@@H](C)[C@H](OC(=O)c2ccccc2C(F)(F)F)[C@@H]1C)C4=O [5h, 25-O-(2-trifluoromethylbenzoyl)-25-O-desacetyrifabutin] | 0.1 (≈ 0.0977 µg/mL) | 0.8 | 0.12 | 2 |  | 
4 | CO[C@H]1/C=C/O[C@@]2(C)Oc3c(C)c(O)c4c(c3C2=O)C2=NC3(CCN(CC(C)C)CC3)NC2=C(NC(=O)/C(C)=C/C=C/[C@H](C)[C@H](O)[C@@H](C)[C@@H](O)[C@@H](C)[C@H](OC(=O)c2ccccc2-c2ccccc2)[C@@H]1C)C4=O [5i, 25-O-(2-phenylbenzoyl)-25-O-desacetyrifabutin] | 0.26 (≈ 0.256 µg/mL) | 1.8 | 0.14 | 5 |  | 
5 | CCC(CC)C(=O)O[C@H]1[C@H](C)[C@H](O)[C@H](C)[C@@H](O)[C@@H](C)/C=C/C=C(\C)C(=O)NC2=C3NC4(CCN(CC(C)C)CC4)N=C3c3c(c(O)c(C)c4c3C(=O)[C@@](C)(O/C=C/[C@H](OC)[C@H]1C)O4)C2=O [5l] | 1.15 (≈ 1.04 µg/mL) | 23.5 | 0.049 |  |  | 
6 | CO[C@H]1/C=C/O[C@@]2(C)Oc3c(C)c(O)c4c(c3C2=O)C2=NC3(CCN(CC(C)C)CC3)NC2=C(NC(=O)/C(C)=C/C=C/[C@H](C)[C@H](O)[C@@H](C)[C@@H](O)[C@@H](C)[C@H](OC(=O)c2nccs2)[C@@H]1C)C4=O [5o, 25-O-(2-thiazolecarbonyl)-25-O-desacetyrifabutin] | 0.017 (≈ 0.0156 µg/mL) | 1.0 | 0.017 |  |  | 
7 | CO[C@H]1/C=C/O[C@@]2(C)Oc3c(C)c(O)c4c(c3C2=O)C2=NC3(CCN(CC(C)C)CC3)NC2=C(NC(=O)/C(C)=C/C=C/[C@H](C)[C@H](O)[C@@H](C)[C@@H](O)[C@@H](C)[C@H](OC(=O)c2cccc(C)c2)[C@@H]1C)C4=O [UMN8] |  |  |  |  | 0.075 | 0.065
8 | CO[C@H]1/C=C/O[C@@]2(C)Oc3c(C)c(O)c4c(c3C2=O)C2=NC3(CCN(CC(C)C)CC3)NC2=C(NC(=O)/C(C)=C/C=C/[C@H](C)[C@H](O)[C@@H](C)[C@@H](O)[C@@H](C)[C@H](OC(=O)c2ccc(C)cc2)[C@@H]1C)C4=O [UMN9] |  |  |  |  | 0.2 | 0.11
9 | CCC(CC)C(=O)O[C@H]1[C@H](C)[C@H](O)[C@H](C)[C@@H](O)[C@@H](C)/C=C/C=C(\C)C(=O)NC2=C3NC4(CCN(CC(C)C)CC4)N=C3c3c(c(O)c(C)c4c3C(=O)[C@@](C)(O/C=C/[C@H](OC)[C@H]1C)O4)C2=O [UMN17] |  |  |  |  | 1.15 | 0.049
10 | CCC(C)C(=O)O[C@H]1[C@H](C)[C@H](O)[C@H](C)[C@@H](O)[C@@H](C)/C=C/C=C(\C)C(=O)NC2=C3NC4(CCN(CC(C)C)CC4)N=C3c3c(c(O)c(C)c4c3C(=O)[C@@](C)(O/C=C/[C@H](OC)[C@H]1C)O4)C2=O (stereo partly drawn) [UMN21] |  |  |  |  | 1.1 | 0.028
11 | CO[C@H]1/C=C/O[C@@]2(C)Oc3c(C)c(O)c4c(c3C2=O)C2=NC3(CCN(CC(C)C)CC3)NC2=C(NC(=O)/C(C)=C/C=C/[C@H](C)[C@H](O)[C@@H](C)[C@@H](O)[C@@H](C)[C@H](OC(=O)c2ccccc2-c2ccccc2)[C@@H]1C)C4=O [UMN25] |  |  |  |  | 0.26 | 0.14
12 | CO[C@H]1/C=C/O[C@@]2(C)Oc3c(C)c(O)c4c(c3C2=O)C2=NC3(CCN(CC(C)C)CC3)NC2=C(NC(=O)/C(C)=C/C=C/[C@H](C)[C@H](O)[C@@H](C)[C@@H](O)[C@@H](C)[C@H](OC(=O)c2ccccc2C(F)(F)F)[C@@H]1C)C4=O [UMN30] |  |  |  |  | 0.1 | 0.12
13 | CO[C@H]1/C=C/O[C@@]2(C)Oc3c(C)c(O)c4c(c3C2=O)C2=NC3(CCN(CC(C)C)CC3)NC2=C(NC(=O)/C(C)=C/C=C/[C@H](C)[C@H](O)[C@@H](C)[C@@H](O)[C@@H](C)[C@H](OC(=O)Nc2cccc(-c3ccccc3)c2)[C@@H]1C)C4=O [UMN31] |  |  |  |  | 0.27 | 0.43
14 | CO[C@H]1/C=C/O[C@@]2(C)Oc3c(C)c(O)c4c(c3C2=O)C2=NC3(CCN(CC(C)C)CC3)NC2=C(NC(=O)/C(C)=C/C=C/[C@H](C)[C@H](O)[C@@H](C)[C@@H](O)[C@@H](C)[C@H](OC(=O)Nc2ccc(-c3ccccc3)cc2)[C@@H]1C)C4=O [UMN38] |  |  |  |  | 0.2 | 0.43
15 | CO[C@H]1/C=C/O[C@@]2(C)Oc3c(C)c(O)c4c(c3C2=O)C2=NC3(CCN(CC(C)C)CC3)NC2=C(NC(=O)/C(C)=C/C=C/[C@H](C)[C@H](O)[C@@H](C)[C@@H](O)[C@@H](C)[C@H](OC(=O)NCc2cc(-c3cccc(-c5ccccc5)c3)no2)[C@@H]1C)C4=O [UMN41] |  |  |  |  | 0.25 | 0.34
16 | CO[C@H]1/C=C/O[C@@]2(C)Oc3c(C)c(O)c4c(c3C2=O)C2=NC3(CCN(CC(C)C)CC3)NC2=C(NC(=O)/C(C)=C/C=C/[C@H](C)[C@H](O)[C@@H](C)[C@@H](O)[C@@H](C)[C@H](OC(=O)N2CCN(CC(F)(F)F)CC2)[C@@H]1C)C4=O [UMN54] |  |  |  |  | 0.13 | 0.029
17 | CO[C@H]1/C=C/O[C@@]2(C)Oc3c(C)c(O)c4c(c3C2=O)C2=NC3(CCN(CC(C)C)CC3)NC2=C(NC(=O)/C(C)=C/C=C/[C@H](C)[C@H](O)[C@@H](C)[C@@H](O)[C@@H](C)[C@H](OC(=O)N2CCN(CCO)CC2)[C@@H]1C)C4=O [UMN55] |  |  |  |  | 0.28 | 0.13
18 | CO[C@H]1/C=C/O[C@@]2(C)Oc3c(C)c(O)c4c(c3C2=O)C2=NC3(CCN(CC(C)C)CC3)NC2=C(NC(=O)/C(C)=C/C=C/[C@H](C)[C@H](O)[C@@H](C)[C@@H](O)[C@@H](C)[C@H](OC(=O)Nc2nc(-c3ccccc3)cs2)[C@@H]1C)C4=O [UMN57] |  |  |  |  | 0.15 | 0.25
19 | CO[C@H]1/C=C/O[C@@]2(C)Oc3c(C)c(O)c4c(c3C2=O)C2=NC3(CCN(CC(C)C)CC3)NC2=C(NC(=O)/C(C)=C/C=C/[C@H](C)[C@H](O)[C@@H](C)[C@@H](O)[C@@H](C)[C@H](OC(=O)N2Cc3ccccc3C2)[C@@H]1C)C4=O [UMN65] |  |  |  |  | 0.11 | 0.052
20 | CO[C@H]1/C=C/O[C@@]2(C)Oc3c(C)c(O)c4c(c3C2=O)C2=NC3(CCN(CC(C)C)CC3)NC2=C(NC(=O)/C(C)=C/C=C/[C@H](C)[C@H](O)[C@@H](C)[C@@H](O)[C@@H](C)[C@H](OC(=O)N2CCN(C(C)C)CC2)[C@@H]1C)C4=O [UMN66] |  |  |  |  | 0.17 | 0.056
